Data from patent US20040091860A1 (priority 1999, published 2004).

How the values were obtained:
rice POX genes [1] = experiment: Inducibility of rice peroxidases to ethephon and MeJA (RNA gel blot analysis); type: in vivo, Oryza sativa cv. Nipponbare; settings: for response of R2151 gene expression to stimuli: R2151 gene (group A1), FIG. 8(d), day 16, compared with control; for expression of R2693, R2329, S11222, prxRPA, R2576, R2184 and C52903 POX genes: leaf blades of 16-day-old seedlings, 1 mM ethephon or 25 μM MeJA solution sprayed onto whole plants, 48 hours, versus leaf blade without stress
Experimental: Gene expression was analyzed by subjecting total RNAs isolated by the ATA method (Nagy et al., Reference 35) to RNA gel blot analysis (Ausubel et al., Reference 36).
cDNA fragments containing 3′ untranslated regions of 21 rice POX genes indicated by boxes in FIG. 1 were amplified by the PCR method. The amplified fragments were used as probes specific to the respective POX genes for the RNA gel blot analysis.
The above-described RNAs were subjected to electrophoresis, followed by transcription to a membrane (HyBond N, Amersham). The specific probes were allowed to hybridize, followed by washing for 5 min (once) and for 10 min (twice) in 2×SSC containing 0.1% SDS at room temperature, and then three times in 1×SSC containing 0.1% SDS for 15 min each at 65° C. Subsequently, the membrane was subjected to autoradiography at −80° C. using a film for autoradiography (XA OMT, Kodak) overnight or more. The recovered film was analyzed by the BAS2000 Bioimaging analyzer (Fuji Photo Film Co., Ltd.) or Phosphor Imager SI (Molecular Dynamics) in accordance with the manufacturer's instruction. The amount of RNA loaded was confirmed by monitoring the level of ribosome RNA (rRNA) stained by methylene blue. The expression amounts of the POXs were compared with each other with reference to the rRNA levels.
16-day-old seedlings were produced under the conditions described in Example 2. With these seedlings, the inducibility of rice peroxidases to ethephon (an ethylene release factor) and MeJA (a wound information transfer substance) was analyzed. For ethephon stimulus, 1 mM ethephon solution containing 0.05% ethanol was used. For MeJA stimulus, 25 μM MeJA solution containing 0.125% Triton X-100 was used. These solutions were sprayed onto whole plants, and maintained for 48 hours.
RNAs were extracted from the leaf blades of stimulated rice plants in a manner as described in Example 2. For each POX, expression specificity was analyzed. As a control, leaf blade without a stress were used.

rice POX genes [2] = test system: rice POX genes; design: species or system Oryza sativa cv. Nipponbare
[3] = test system: rice blast fungus (M. grisea race(003)); type: in vivo, Magnaporthe grisea; settings: compatible rice treated with probenazole (100 mg/ml) two days before M. grisea race(003), 1×10^5 spores/ml; untreated compatible rice: days 4 and 5
POX genes = type: in vivo, Oryza sativa cv. Nipponbare; settings: probenazole-treated rice, before and 2, 3, 4 and 5 days after rice blast fungus treatment; FIG. 24

Compound | response of R2151 gene expression to stimuli (rice POX genes [1]) | expression of R2693, R2329, S11222, prxRPA, R2576, R2184 and C52903 POX genes (rice POX genes [1]) | further results
O=P(O)(O)CCCl [Ethephon, ethephon] | reducible responses | induced expression | –
CC/C=C\CC1C(=O)CCC1CC(=O)OC (centres unmarked) [MeJA, methyl jasmonate] | reducible responses | induced expression | –
C[n+]1ccc(-c2cc[n+](C)cc2)cc1 [paraquat, 1,1-dimethyl-4,4-dipyridinium dichloride] | – | – | expression of R2329, prxRPA, R2576 and C52903 (rice POX genes [2]): induced; expression of apoplastic (R2329, prx2576 and R2576) and vacuolar (e.g., R2184 and C52903) POXs (rice POX genes [2]): induced the expression
C=CCOC1=NS(=O)(=O)c2ccccc21 [probenazole] | – | – | lesion spot formation found on days after rice blast fungus treatment [3]: 2 to 3 days; expression patterns with E2184, R2576, R2693 and R2329 as probes (POX genes): significantly similar to the transition pattern of formation of lesion spots
